{"source": "patent US8927549B2", "about": "“Adamantyl benzamide derivatives” (High Point Pharmaceuticals, LLC, priority 2008, dated 2015)"}
{"target": "T1, 11β-HSD (Homo sapiens, UniProt P28845)", "T1 construct": "from tissue", "T1 sequence (P28845 whole entry)": "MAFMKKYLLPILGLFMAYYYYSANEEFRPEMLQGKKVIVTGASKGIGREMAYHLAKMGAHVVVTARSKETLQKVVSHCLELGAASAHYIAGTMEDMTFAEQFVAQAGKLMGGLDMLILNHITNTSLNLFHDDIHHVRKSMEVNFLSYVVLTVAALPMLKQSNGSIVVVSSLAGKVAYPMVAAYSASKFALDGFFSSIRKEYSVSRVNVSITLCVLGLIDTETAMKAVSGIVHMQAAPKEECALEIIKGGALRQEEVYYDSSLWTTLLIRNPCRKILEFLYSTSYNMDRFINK", "assay": "in vitro 11β-HSD Assay (human microsomes, CISBIO Cortisol kit)", "format": "biochemical", "settings": "160 nM cortisone, 200 μM NADPH, 2 h at 37° C.", "protocol": "Protocol for in vitro 11β-HSD Assay\nCISBIO Cortisol kit #62CO2PEB\nAssay Buffer: (water based) used for Enzyme, Compounds and Microsomes: 20 mM Tris, 5 mM EDTA, and pH 6.0.\nEnzyme Buffer: 333 μM NADPH (FAC 200 μM) and 266 nM Cortisone (FAC 160 nM).\n1) Test compounds (10 mM stock in 100% DMSO) were diluted in Assay Buffer (see below) with 1% DMSO FAC and placed into the 96-well plate. Test compounds were typically tested over 10 concentrations (30 μM-0.3 nM).\n2) 30 μL Enzyme Buffer, 10 μL Test Compound, 10 μL human microsomes were added to the test compounds and mixed gently by tapping the plate.\n3) The plates were incubated for 2 h at 37° C.\n4) 25 μL anti Cortisol-K and 25 μL Cortisol d2 were added to the plate and mixed gently by tapping the plate.\n5) The plates were incubated at room temperature for 2 h.\n6) The plates were read on an Envision model 2120 Perkin-Elmer using emission filters #205 and #217.", "units": {"EC50": "nM"}}
{"compound": "O=C(NC1C2CC3CC1CC(O)(C3)C2)c1cccc(Sc2ccc(Cl)cn2)c1", "note": "(stereo not drawn) [Example 3, 3-(5-Chloro-pyridin-2-ylsulfanyl)-N-[(E)-5-hydroxy-adamantan-2-yl]-benzamide]", "EC50": "< 200"}
{"compound": "O=C(NC1C2CC3CC1CC(O)(C3)C2)c1cccc(Oc2ncc(Cl)cc2Cl)c1", "note": "(stereo not drawn) [Example 7, 3-(3,5-Dichloro-pyridin-2-yloxy)-N-[(E)-5-hydroxy-adamantan-2-yl]-benzamide]", "EC50": "< 200"}
{"compound": "O=C(NC1C2CC3CC1CC(O)(C3)C2)c1cccc(S(=O)(=O)c2ccc(Cl)cn2)c1", "note": "(stereo not drawn) [Example 5, 3-(5-Chloro-pyridine-2-sulfonyl)-N-[(E)-5-hydroxy-adamantan-2-yl]-benzamide]", "EC50": "< 3000"}
{"compound": "O=C(NC1C2CC3CC1CC(O)(C3)C2)c1cccc([S+]([O-])c2ccc(Cl)cn2)c1", "note": "(stereo not drawn) [Example 4, 3-(5-Chloro-pyridine-2-sulfinyl)-N-[(E)-5-hydroxy-adamantan-2-yl]-benzamide]", "EC50": "< 500"}
{"compound": "O=C(NC1C2CC3CC1CC(O)(C3)C2)c1cccc(Oc2ccc(Cl)nn2)c1", "note": "(stereo not drawn) [Example 6, 3-(6-Chloro-pyridazin-3-yloxy)-N-[(E)-5-hydroxy-adamantan-2-yl]-benzamide]", "EC50": "< 200"}
{"compound": "O=C(NC1C2CC3CC1CC(O)(C3)C2)c1cccc(Nc2ccc(Cl)cn2)c1", "note": "(stereo not drawn) [Example 8, 3-(5-Chloro-pyridin-2-ylamino)-N-[(E)-5-hydroxy-adamantan-2-yl]-benzamide]", "EC50": "< 200"}
{"compound": "Cc1cc(C)nc(Nc2cccc(C(=O)NC3C4CC5CC3CC(O)(C5)C4)c2)n1", "note": "(stereo not drawn) [Example 9, 3-(4,6-Dimethyl-pyrimidin-2-ylamino)-N-[(E)-5-hydroxy-adamantan-2-yl]-benzamide]", "EC50": "< 500"}
{"compound": "O=C(NC1C2CC3CC1CC(O)(C3)C2)c1cccc(Oc2ccc(C(F)(F)F)cn2)c1", "note": "(stereo not drawn) [Example 2, N-[(E)-5-Hydroxy-adamantan-2-yl]-3-(5-trifluoromethyl-pyridin-2-yloxy)-benzamide]", "EC50": "< 200"}
{"compound": "O=C(NC1C2CC3CC1CC(O)(C3)C2)c1cccc(Oc2ccc(Cl)cn2)c1", "note": "(stereo not drawn) [Example 1, 3-(5-Chloro-pyridin-2-yloxy)-N-[(E)-5-hydroxy-adamantan-2-yl]-benzamide]", "EC50": "< 200"}
